# In patent US20260327221A1, “INHIBITORS OF CYCLIC GMP-AMP SYNTHASE AND USES THEREOF” (Ventus Therapeutics U.S., Inc., priority 2023, published 2026):
# Target: hcGAS (Homo sapiens, UniProt Q8N884)
# Assay: hcGAS LCMS assay (direct measurement of cGAMP production by LC/MS)
# Assay type: biochemical
# Conditions: 4 h incubation with enzyme and substrates; cGAMP production by LC/MS; class symbols; read-out: hcGAS LCMS IC50
# How it was run: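 Enzyme, substrates (ATP, GTP) and compound incubated 4 h, then quenched with acetonitrile/water containing 0.15 uM 13C/15N-labeled cGAMP internal standard. cGAMP formed quantified directly by LC/MS on HILIC amide column; IC50 values reported in potency bins.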
# hcGAS, sequence (Q8N884 whole entry): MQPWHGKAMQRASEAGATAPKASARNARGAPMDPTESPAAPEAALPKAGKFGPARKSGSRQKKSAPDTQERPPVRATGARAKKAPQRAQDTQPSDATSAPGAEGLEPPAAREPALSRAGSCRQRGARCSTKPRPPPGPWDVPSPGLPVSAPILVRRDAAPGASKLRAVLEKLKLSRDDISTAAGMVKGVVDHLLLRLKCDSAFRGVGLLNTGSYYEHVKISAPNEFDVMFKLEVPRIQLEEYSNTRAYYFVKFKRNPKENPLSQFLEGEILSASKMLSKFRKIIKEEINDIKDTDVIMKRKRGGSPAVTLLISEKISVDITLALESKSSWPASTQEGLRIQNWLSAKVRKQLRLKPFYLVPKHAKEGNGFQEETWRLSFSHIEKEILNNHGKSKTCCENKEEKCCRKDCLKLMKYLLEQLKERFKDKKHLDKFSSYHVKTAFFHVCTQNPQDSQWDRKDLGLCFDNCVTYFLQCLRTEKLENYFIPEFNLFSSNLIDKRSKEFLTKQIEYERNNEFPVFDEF
row,SMILES,IC50 [nM]
1,"COCCCOc1c(-c2ncccc2OC)cc(C(=O)Nc2nnc(-n3nccc3N)s2)oc1=O [Compound 21, N-(5-(5-amino-1H-pyrazol-1-yl)-1,3,4-thiadiazol-2-yl)-3-(3-methoxypropoxy)-4-(3-methoxypyridin-2-yl)-2-oxo-2H-pyran-6-carboxamide]",1 to 5
2,"COCCOc1c(-c2c(C#N)cccc2OC)cc(C(=O)Nc2nnc(-n3nccc3C(F)F)s2)oc1=O [Compound 23, 4-(2-cyano-6-methoxyphenyl)-N-(5-(5-(difluoromethyl)-1H-pyrazol-1-yl)-1,3,4-thiadiazol-2-yl)-3-(2-methoxyethoxy)-2-oxo-2H-pyran-6-carboxamide]",0.5 to 1
3,"COc1cccc(C#N)c1-c1cc(C(=O)Nc2nnc(-n3nccc3Cl)s2)oc(=O)c1OCCO [Compound 26, N-(5-(5-chloro-1H-pyrazol-1-yl)-1,3,4-thiadiazol-2-yl)-4-(2-cyano-6-methoxyphenyl)-3-(2-hydroxyethoxy)-2-oxo-2H-pyran-6-carboxamide]",< 0.5
4,"COCCOc1cccc(OC)c1-c1cc(C(=O)Nc2nnc(-n3nccc3N)s2)oc(=O)c1OCCOC [Compound 27, N-(5-(5-amino-1H-pyrazol-1-yl)-1,3,4-thiadiazol-2-yl)-4-(2-methoxy-6-(2-methoxyethoxy)phenyl)-3-(2-methoxyethoxy)-2-oxo-2H-pyran-6-carboxamide]",1 to 5
5,"COCCOc1c(-c2c(OC)cncc2OC)cc(C(=O)Nc2nnc(-n3nccc3N)s2)oc1=O [Compound 28, N-(5-(5-amino-1H-pyrazol-1-yl)-1,3,4-thiadiazol-2-yl)-4-(3,5-dimethoxypyridin-4-yl)-3-(2-methoxyethoxy)-2-oxo-2H-pyran-6-carboxamide]",1 to 5
6,"COCC(C)(C)COc1c(-c2ncccc2OC)cc(C(=O)Nc2nnc(-n3nccc3N)s2)oc1=O [Compound 29, N-(5-(5-amino-1H-pyrazol-1-yl)-1,3,4-thiadiazol-2-yl)-3-(3-methoxy-2,2-dimethylpropoxy)-4-(3-methoxypyridin-2-yl)-2-oxo-2H-pyran-6-carboxamide]",1 to 5
7,"COCCOCCOc1c(-c2c(OC)cccc2OC)cc(C(=O)Nc2nnc(-n3nccc3N)s2)oc1=O [Compound 30, N-(5-(5-amino-1H-pyrazol-1-yl)-1,3,4-thiadiazol-2-yl)-4-(2,6-dimethoxyphenyl)-3-(2-(2-methoxyethoxy)ethoxy)-2-oxo-2H-pyran-6-carboxamide]",0.5 to 1
8,"COc1cccnc1-c1cc(C(=O)Nc2nnc(-n3nccc3N)s2)oc(=O)c1OCC(C)(C)CO [Compound 33, N-(5-(5-amino-1H-pyrazol-1-yl)-1,3,4-thiadiazol-2-yl)-3-(3-hydroxy-2,2-dimethylpropoxy)-4-(3-methoxypyridin-2-yl)-2-oxo-2H-pyran-6-carboxamide]",1 to 5

# The remaining lines, values ahead:
row,IC50 [nM],SMILES
1,1 to 5,"COc1cccc(OC)c1-c1cc(C(=O)Nc2nnc(-n3nccc3N)s2)oc(=O)c1OCCN1CCOCC1 [Compound 22, N-(5-(5-amino-1H-pyrazol-1-yl)-1,3,4-thiadiazol-2-yl)-4-(2,6-dimethoxyphenyl)-3-(2-morpholinoethoxy)-2-oxo-2H-pyran-6-carboxamide]"
2,5 to 20,"COc1c(-c2nn(C)cc2C#N)cc(C(=O)Nc2nnc(-n3nccc3C)s2)oc1=O [Compound 31, 4-(4-cyano-1-methyl-1H-pyrazol-3-yl)-3-methoxy-N-(5-(5-methyl-1H-pyrazol-1-yl)-1,3,4-thiadiazol-2-yl)-2-oxo-2H-pyran-6-carboxamide]"
3,1 to 5,"COCCOc1c(-c2c(CC#N)cccc2OC)cc(C(=O)Nc2nnc(-n3nccc3N)s2)oc1=O [Compound 32, N-(5-(5-amino-1H-pyrazol-1-yl)-1,3,4-thiadiazol-2-yl)-4-(2-(cyanomethyl)-6-methoxyphenyl)-3-(2-methoxyethoxy)-2-oxo-2H-pyran-6-carboxamide]"
4,0.5 to 1,"COc1cccc(OC)c1-c1cc(C(=O)Nc2nnc(-n3nccc3N)s2)oc(=O)c1OCC(C)(C)CO [Compound 36, N-(5-(5-amino-1H-pyrazol-1-yl)-1,3,4-thiadiazol-2-yl)-4-(2,6-dimethoxyphenyl)-3-(3-hydroxy-2,2-dimethylpropoxy)-2-oxo-2H-pyran-6-carboxamide]"
